The term IC50 denotes the concentration at which inhibition is half-maximal. What is called inhibition is the percentage by which the read-out fell short of the control.

The subject of one assay is NO production by RAW264.7 cell. In words: NO production-inhibiting effect in RAW264.7 cells (nitrite ion by DAN fluorescence). Particulars: Mus musculus, RAW264.7, RAW264.7; LPS 5 ng/ml + interferon gamma 1 U/ml; nitrite ion in culture supernatant after overnight incubation. The assay is classed as cell-based, mouse. The method, then: Mouse macrophage cell line RAW264.7 was used as an iNOS-inducible cell and a test compound was examined for its % inhibition of NO production. The test compound was dissolved at 10 mM in N,N-dimethylformamide and diluted with an RPMI-1640 medium at the concentration of 0.1 mM. The concentration was further adjusted using the medium so that a final concentration ranging from 10 μM to 10 nM could be obtained by a 10-fold serial dilution and the test compound was added to a culture medium. On the day before the experiment, the cell was adjusted at 5×10^5/ml in an RPMI-1640 medium supplemented with 10% inactivated fetal calf serum and inoculated to a 96-well microplate at 1×10^5 cells/0.2 ml per well. After incubating at 37° C. under an atmosphere of 5% CO2/95% air overnight, the test compound adjusted as described above was added and then LPS and interferon gamma were added at the final concentrations of 5 ng/ml and 1 U/ml, respectively. After further incubating overnight, culture supernatants were examined for the concentration of nitrite ion (stable metabolite of NO) which was used as an index for the NO production. The nitrite ion concentration was determined by adding 25 μl of 20 μg/ml of 2,3-diaminonaphthalene (DAN) to 50 μl of the culture supernatant, followed by incubating at room temperature for 10 minutes, followed by adding 25 μl of 0.5 N NaOH, followed by determining a fluorescence at 450 nm (excitation wavelength: 365 nm). An IC50 represents the concentration of the test compound which inhibits 50% of the NO production.
Regarding `CCOC(=O)C1=CCCCC1S(=O)(=O)Nc1ccc(C)cc1Cl` (stereo not drawn) [Compound 45, ethyl 6-[N-(2-chloro-4-methylphenyl)sulfamoyl]-1-cyclohexene-1-carboxylate], the half-maximal inhibitory concentration (IC50) was 0.027 µM.

`CCOC(=O)C1=CCCCC1S(=O)(=O)Nc1ccc(F)cc1C` (stereo not drawn) [Compound 46, ethyl 6-[N-(4-fluoro-2-methylphenyl)sulfamoyl]-1-cyclohexene-1-carboxylate]: the IC50 came to 0.054 µM.

For the molecule `CCOC(=O)C1=CCCCC1S(=O)(=O)Nc1c(Cl)cccc1Cl` (stereo not drawn) [Compound 47, ethyl 6-[N-(2,6-dichlorophenyl)sulfamoyl]-1-cyclohexene-1-carboxylate], the IC50 was found to be 0.048 µM.

In the case of `CCOC(=O)C1=CCCCC1S(=O)(=O)Nc1ccc(-n2cnnn2)cc1` (stereo not drawn) [Compound 48, ethyl 6-[N-[4-(1H-tetrazol-1-yl)phenyl)sulfamoyl]-1-cyclohexene-1-carboxylate], the IC50 was found to be 3.8 µM.

For the molecule `CCOC(=O)C1=CCCCC1S(=O)(=O)Nc1ccc(-n2ccnn2)cc1` (stereo not drawn) [Compound 49, ethyl 6-[N-[4-(1H-1,2,3-triazol-1-yl)phenyl)sulfamoyl]-1-cyclohexene-1-carboxylate], the concentration for half-maximal inhibition (IC50) worked out at 5.6 µM.

In the case of `CCOC(=O)C1=CCCCC1S(=O)(=O)Nc1ccccc1C(F)(F)F` (stereo not drawn) [Compound 50, ethyl 6-[N-(2-trifluoromethylphenyl)sulfamoyl]-1-cyclohexene-1-carboxylate], the 50% inhibitory concentration (IC50) turned out to be 2 µM.

Regarding `CCOC(=O)C1=CCCCC1S(=O)(=O)Nc1ccc(C(=O)OC)cc1` (stereo not drawn) [Compound 51, ethyl 6-(N-(4-methoxycarbonylphenyl)sulfamoyl]-1-cyclohexene-1-carboxylate], the IC50 came to 4 µM.

`O=C(OCc1ccccc1)C1=CCCCC1S(=O)(=O)Nc1ccc(F)cc1F` (stereo not drawn) [Compound 52, benzyl 6-[N-(2,4-difluorophenyl)sulfamoyl]-1-cyclohexene-1-carboxylate]: the half-maximal inhibitory concentration (IC50) worked out at 4.3 µM.

Regarding `CCOC(=O)C1=CCCCC1S(=O)(=O)Nc1ccc(CNC(=NC(=O)OC(C)(C)C)NC(=O)OC(C)(C)C)cc1` (stereo not drawn) [Compound 53, ethyl 6-[N-[4-[2,3-bis(t-butoxycarbonyl)guanidinomethyl]phenyl]sulfamoyl]-1-cyclohexene-1-carboxylate], the IC50 amounted to 2.4 µM.

As to `CCOC(=O)C1=CCCCC1S(=O)(=O)Nc1ccc(C(=O)OC)cc1Cl` (stereo not drawn) [Compound 54, ethyl 6-[N-(2-chloro-4-methoxycarbonylphenyl)sulfamoyl]-1-cyclohexene-1-carboxylate], the half-inhibitory concentration (IC50) worked out at 2.3 µM.

In the case of `CCOC(=O)C1=CCCCC1S(=O)(=O)Nc1ccc(C#N)cc1Cl` (stereo not drawn) [Compound 55, ethyl 6-[N-(2-chloro-4-cyanophenyl)sulfamoyl]-1-cyclohexene-1-carboxylate], the half-inhibitory concentration (IC50) was determined as 3.3 µM.

In the case of `O=C(OCCO)C1=CCCCC1S(=O)(=O)Nc1ccc(F)cc1F` (stereo not drawn) [Compound 56, 2-hydroxyethyl 6-[N-(2,4-difluorophenyl)sulfamoyl]-1-cyclohexene-1-carboxylate], the IC50 came out at 1 µM.

Consider `CCOC(=O)C1=CCCC1S(=O)(=O)Nc1ccc(F)cc1F` (stereo not drawn) [Compound 58, ethyl 5-[N-(2,4-difluorophenyl)sulfamoyl]-1-cyclopentene-1-carboxylate], for which the concentration for half-maximal inhibition (IC50) came to 0.39 µM.

With `CC(C)(C)OC(=O)COC(=O)C1=CCCCC1S(=O)(=O)Nc1ccc(F)cc1F` (stereo not drawn) [Compound 59, t-butyl [6-[N-(2,4-difluorophenyl)sulfamoyl]-1-cyclohexen-1-yl]carbonyloxyacetate], the half-inhibitory concentration (IC50) stood at 0.54 µM.

With `O=C(O)COC(=O)C1=CCCCC1S(=O)(=O)Nc1ccc(F)cc1F` (stereo not drawn) [Compound 60, [6-[N-(2,4-difluorophenyl)sulfamoyl]-1-cyclohexen-1-yl]carbonyloxyacetic acid], the IC50 is 7.9 µM.

As for `CCOC(=O)C1=CCCCCC1S(=O)(=O)Nc1ccc(F)cc1F` (stereo not drawn) [Compound 61, ethyl 7-[N-(2,4-difluorophenyl)sulfamoyl]-1-cycloheptene-1-carboxylate], the IC50 was 2.8 µM.

Consider `CCOC(=O)C1=CCCCC1S(=O)(=O)Nc1ccc(C(=O)NCC(=O)OC(C)(C)C)cc1Cl` (stereo not drawn) [Compound 62, ethyl 6-[N-[2-chloro-4-(N-t-butoxycarbonylmethylcarbamoyl)phenyl]sulfamoyl]-1-cyclohexene-1-carboxylate], for which the IC50 was 3.8 µM.

For `CCOC(=O)CNC(=O)c1ccc(NS(=O)(=O)C2CCCC=C2C(=O)OCC)c(Cl)c1` (stereo not drawn) [Compound 63, ethyl 6-[N-[2-chloro-4-(N-ethoxycarbonylmethylcarbamoyl)phenyl]sulfamoyl]-1-cyclohexene-1-carboxylate], the 50% inhibitory concentration (IC50) was 8.4 µM.

Turning to `CCOC(=O)C1=CCCC1S(=O)(=O)Nc1ccc(F)cc1Cl` (stereo not drawn) [Compound 64, ethyl 5-[N-(2-chloro-4-fluorophenyl)sulfamoyl]-1-cyclopentene-1-carboxylate], the IC50 turned out to be 0.25 µM.

As for `CCOC(=O)C1=CCCCCC1S(=O)(=O)Nc1ccc(F)cc1Cl` (stereo not drawn) [Compound 65, ethyl 7-[N-(2-chloro-4-fluorophenyl)sulfamoyl]-1-cycloheptene-1-carboxylate], the IC50 turned out to be 0.32 µM.

As to `CCOC(=O)C1=C(S(=O)(=O)Nc2ccc(F)cc2F)CCC1` [Compound 66, ethyl 2-[N-(2,4-difluorophenyl)sulfamoyl]-1-cyclopentene-1-carboxylate], the IC50 was determined as 8.1 µM.

For the molecule `COc1ccc(N2C(=O)C3=C(CCCC3)S2(=O)=O)cc1` [Compound 67, 2-(4-methoxyphenyl)-4,5,6,7-tetrahydro-1,2-benzoisothiazole-3(2H)-one 1,1-dioxide], the IC50 stood at 6 µM.

Regarding `O=C1C2=C(CCCC2)S(=O)(=O)N1c1ccc(F)cc1` [Compound 68, 2-(4-fluorophenyl)-4,5,6,7-tetrahydro-1,2-benzoisothiazol-3(2H)-one 1,1-dioxide], the IC50 came out at 5.1 µM.

`O=C1C2=C(CCCC2)S(=O)(=O)N1c1ccc(OCC(F)(F)C(F)(F)F)cc1` [Compound 69, 2-[4-(2,2,3,3,3-pentafluoropropoxy)phenyl]-4,5,6,7-tetrahydro-1,2-benzisothiazol-3(2H)-one 1,1-dioxide]: the IC50 was 6.8 µM.

In the case of `O=C1C2=CCCCC2S(=O)(=O)N1c1ccc(F)cc1F` (stereo not drawn) [Compound 70, 2-(2,4-difluorophenyl)-5,6,7,7a-tetrahydro-1,2-benzoisothiazol-3(2H)-one 1,1-dioxide], the IC50 is 0.35 µM.

The assay is the same for the next values; noted with them: RAW264.7; LPS 5 ng/ml + interferon gamma 1 U/ml; nitrite ion in culture supernatant after overnight incubation.
As to `CCOC(=O)C1=CCCCC1S(=O)(=O)Nc1ccc(F)cc1F` (stereo not drawn) [Compound 3, ethyl 6-[N-(2,4-difluorophenyl)sulfamoyl]-1-cyclohexene-1-carboxylate], the IC50 was 0.013 to 0.039 µM.

Take `CCOC(=O)C1=CCCCC1S(=O)(=O)Nc1ccc(-n2cncn2)cc1F` (stereo not drawn) [Compound 57, ethyl 6-[N-[2-fluoro-4-(IH-1,2,4-triazol-1-yl)phenyl)sulfamoyl]-1-cyclohexene-1-carboxylate]: the IC50 came to 4.6 µM.

“d-ethyl 6-[N-(2,4-difluorophenyl)sulfamoyl]-1-cyclohexene-1-carboxylate [Compound 20]”: the half-maximal inhibitory concentration (IC50) was 0.005 µM.

In the case of “ethyl 6-[N-3-fluorophenyl]sulfamoyl)-1-cyclohexene-1-carboxylate [Compound 11]”, the half-inhibitory concentration (IC50) came to 0.31 µM.

For another assay, the system named is blood nitric oxide concentration (NOx). In words: Effect on increase in blood nitric oxide level (LPS-treated mice). The assay is classed as in vivo, BALB/c mice. Particulars: Mus musculus; 30 mg/kg orally 1 hour before LPS 10 mg/kg i.p.; serum nitrite+nitrate 6 hours after LPS; vs control group; read-out: Inhibition % of NO in blood.
For the molecule `CCOC(=O)C1=CCCCC1S(=O)(=O)Nc1ccc(F)cc1F` (stereo not drawn) [Compound 3, ethyl 6-[N-(2,4-difluorophenyl)sulfamoyl]-1-cyclohexene-1-carboxylate], the inhibition at 30 mg/kg is 90%.
